Data reported in patent US20230071463A1, “SOLID STATE FORMS OF […] AND PROCESS FOR PREPARATION THEREOF” (TEVA PHARMACEUTICALS INTERNATIONAL GMBH, priority 2020, published 2023).

Columns and labels:
[1] = Solid state stability on exposure to high relative humidity; type: physicochemical
[2] = Solid state stability on exposure to high temperatures and high relative humidity; type: physicochemical

SMILES | stability when exposed to high relative humidity [1] | stability when exposed to high temperatures and high relative humidity [2]
[Cl][Mn-5]1234([Cl])[n+]5c6cccc5C[NH+]1[C@H]1CCCC[C@@H]1[NH+]2CC[NH+]3[C@H]1CCCC[C@@H]1[NH+]4C6 (some centres unmarked) [Form AM1, Avasopasem manganese] | stable | –
[Cl][Mn-5]1234([Cl])[n+]5c6cccc5C[NH+]1[C@H]1CCCC[C@@H]1[NH+]2CC[NH+]3[C@H]1CCCC[C@@H]1[NH+]4C6 (some centres unmarked) [Form AM2, Avasopasem manganese] | – | stable
